Format in all cases: cell-based
For assay [1], the system named is Lovo cells (G13D). Kind of assay: Cell viability assay (CellTiter-Glo), Lovo cells. The note with it: Homo sapiens, 72 h; Lovo cells, 3 days incubation, CellTiter-Glo luminescence; read-out: Inhibition of Cancerous Cells IC50 Lovo (G13D). An outline of the steps: (§1)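 Cells were plated in their growth medium (RPMI 1640 for H358 and SW48, DMEM for Lovo and SW480) with 2.5% FBS, then exposed to compound or DMSO for 3 days at 37 °C, 5% CO2. Viability was read as CellTiter-Glo luminescence after 10 min shaking.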
On the technique in general: In ATP-based viability assays light output follows the ATP content of the culture.

Assay [2] deals with SW480 cells (G12V). As to the kind of experiment: Cell viability assay (CellTiter-Glo), SW480 cells. Particulars: Homo sapiens, 72 h; SW480 cells, 3 days incubation, CellTiter-Glo luminescence; read-out: Inhibition of Cancerous Cells IC50 SW480 (G12V). In outline: as §1
For assay [3], the system named is SW48 cells (wt). As to the kind of experiment: Cell viability assay (CellTiter-Glo), SW48 cells. Particulars: Homo sapiens, 72 h; SW48 cells, 3 days incubation, CellTiter-Glo luminescence; read-out: Inhibition of Cancerous Cells IC50 SW48 (wt). In outline:
as §1

For assay [4], the system named is AsPC-1 cells (G12D). Kind of assay: Cell viability assay (CellTiter-Glo), AsPC-1 cells. Particulars: Homo sapiens, ASPC1, 72 h, 3 days incubation, CellTiter-Glo luminescence, read-out: Inhibition of Cancerous Cells IC50 AsPC-1 (G12D). The method, then:
H358, H23, SW48, and AsPC-1 cells were cultured in RPMI 1640 media supplemented with 10% fetal bovine serum, streptomycin, and penicillin. Lovo and SW480 cells were cultured in DMEM media supplemented with 10% fetal bovine serum, streptomycin, and penicillin. The cell lines were plated in their respective medium supplemented with 2.5% fetal bovine serum, streptomycin, and penicillin. All cell lines were plated in white walled 96-well plates at 2,000 cells/well or 384-well plates at 500 cells/well, except Lovo, which were plated at 4,000 or 1,000 cells/well, respectively. The cells were incubated in DMSO (control) or a compound for 3 days at 37° C. under 5% CO2. A CELLTITER-GLO® reagent (100 μL) was then added to each well. After a 10 min incubation with shaking, luminescence was measured using an ENVISION® multimode plate reader.

Assay [5] has as its system H358 cells (G12C). Kind of assay: Cell viability assay (CellTiter-Glo), H358 cells. The note with it: Homo sapiens, NCI-H358, 72 h; H358 cells, 3 days incubation, CellTiter-Glo luminescence; read-out: Inhibition of Cancerous Cells IC50 H358 (G12C). An outline of the steps: as §1

From patent publication US20240025863A1, “SOS1 PROTEIN DEGRADERS, PHARMACEUTICAL COMPOSITIONS THEREOF, AND THEIR THERAPEUTIC APPLICATIONS” (BioTheryX, Inc., priority 2020, published 2024) come the findings set out here.

One may read the IC50 as the concentration that gives 50% inhibition. For `COc1cc2c(N[C@H](C)c3cccc(Br)c3)nc(C)nc2cc1OCCCCCCN1CCN(CCCc2cc3c(cc2F)C(=O)N(C2CCC(=O)NC2=O)C3)CC1` (stereo partly drawn) [Compound A42, 3-(5-(3-(4-(6-((4-(((R)-1-(3-Bromophenyl)ethyl)amino)-6-methoxy-2-methyl-quinazolin-7-yl)oxy)hexyl)piperazin-1-yl)propyl)-6-fluoro-1-oxoisoindolin-2-yl)piperidine-2,6-dione], the half-maximal inhibitory concentration (IC50) in assay [1] is 520 nM; in assay [2], 480 nM; in assay [3], 1000 nM; in assay [4], 1400 nM; in assay [5], 890 nM.
Turning to `COc1cc2c(N[C@H](C)c3cccc(Br)c3)nc(C)nc2cc1OCCCCCCN1CCN(CC#Cc2cc3c(cc2F)C(=O)N(C2CCC(=O)NC2=O)C3)CC1` (stereo partly drawn) [Compound A43, 3-(5-(3-(4-(6-((4-(((R)-1-(3-Bromophenyl)ethyl)amino)-6-methoxy-2-methyl-quinazolin-7-yl)oxy)hexyl)piperazin-1-yl)prop-1-yn-1-yl)-6-fluoro-1-oxoisoindolin-2-yl)-piperidine-2,6-dione], the concentration for half-maximal inhibition (IC50) in assay [1] came to 340 nM; in assay [2], 440 nM; in assay [3], 620 nM; in assay [4], 830 nM; in assay [5], 1300 nM.
As to `COc1cc2c(N[C@H](C)c3cccc(Br)c3)nc(C)nc2cc1OCCCN1CCC2(CC1)CCN(c1cc3c(cc1F)C(=O)N(C1CCC(=O)NC1=O)C3)CC2` (stereo partly drawn) [Compound A44, 3-(5-(9-(3-((4-(((R)-1-(3-Bromophenyl)ethyl)amino)-6-methoxy-2-methyl-quinazolin-7-yl)oxy)propyl)-3,9-diazaspiro[5.5]undecan-3-yl)-6-fluoro-1-oxoisoindolin-2-yl)piperidine-2,6-dione], the IC50 in assay [1] was found to be 530 nM; in assay [2], 440 nM; in assay [3], 610 nM; in assay [4], 980 nM; in assay [5], 1200 nM.
Regarding `COc1cc2c(N[C@H](C)c3cccc(Br)c3)nc(C)nc2cc1OCCCCCCCCCNc1cccc2nc(C)n(C3CCC(=O)NC3=O)c(=O)c12` (stereo partly drawn) [Compound A45, 3-(5-((9-((4-(((R)-1-(3-Bromophenyl)ethyl)amino)-6-methoxy-2-methyl-quinazolin-7-yl)oxy)nonyl)amino)-2-methyl-4-oxoquinazolin-3(4H)-yl)piperidine-2,6-dione], the IC50 in assay [1] was determined as 1200 nM; in assay [2], 900 nM; in assay [3], 2000 nM; in assay [4], 5200 nM; in assay [5], 2300 nM.
Consider `COc1cc2c(N[C@H](C)c3cccc(Br)c3)nc(C)nc2cc1OCCCCCCCCCCCNc1cccc2nc(C)n(C3CCC(=O)NC3=O)c(=O)c12` (stereo partly drawn) [Compound A46, 3-(5-((11-((4-(((R)-1-(3-Bromophenyl)ethyl)amino)-6-methoxy-2-methyl-quinazolin-7-yl)oxy)undecyl)amino)-2-methyl-4-oxoquinazolin-3(4H)-yl)piperidine-2,6-dione], for which the IC50 in assay [1] is 990 nM; in assay [2] it was 720 nM; in assay [3], 2700 nM; in assay [4], > 10000 nM; in assay [5] it was > 10000 nM.
For `COc1cc2c(N[C@H](C)c3cccc(Br)c3)nc(C)nc2cc1OCCCCCCCNc1cccc2nc(C)n(C3CCC(=O)NC3=O)c(=O)c12` (stereo partly drawn) [Compound A47, 3-(5-((7-((4-(((R)-1-(3-Bromophenyl)ethyl)amino)-6-methoxy-2-methyl-quinazolin-7-yl)oxy)heptyl)amino)-2-methyl-4-oxoquinazolin-3(4H)-yl)piperidine-2,6-dione], the IC50 in assay [1] is 910 nM; in assay [2] it was 740 nM; in assay [3], 1400 nM; in assay [4] it was 3700 nM; in assay [5], 3000 nM.
On to `COc1cc2c(N[C@H](C)c3cccc(Br)c3)nc(C)nc2cc1OCCCCCCC(=O)N1CCC(c2cc(F)cc3c2CN(C2CCC(=O)NC2=O)C3=O)CC1` (stereo partly drawn) [Compound A59, 3-(4-(1-(7-((4-(((R)-1-(3-Bromophenyl)ethyl)amino)-6-methoxy-2-methyl-quinazolin-7-yl)oxy)heptanoyl)piperidin-4-yl)-6-fluoro-1-oxoisoindolin-2-yl)piperidine-2,6-dione], for which the IC50 in assay [1] was 4900 nM; in assay [2], 4700 nM; in assay [3] it was 5300 nM; in assay [4] it was > 10000 nM; in assay [5], > 10000 nM.
As for `COc1cc2c(N[C@H](C)c3cccc(Br)c3)nc(C)nc2cc1OCCCCCCC(=O)N1CCC(c2cc3c(cc2F)C(=O)N(C2CCC(=O)NC2=O)C3)CC1` (stereo partly drawn) [Compound A60, 3-(5-(1-(7-((4-(((R)-1-(3-Bromophenyl)ethyl)amino)-6-methoxy-2-methyl-quinazolin-7-yl)oxy)heptanoyl)piperidin-4-yl)-6-fluoro-1-oxoisoindolin-2-yl)piperidine-2,6-dione], the half-inhibitory concentration (IC50) in assay [1] was 4300 nM; in assay [2] it was 4000 nM; in assay [3] it was 3800 nM; in assay [4] it was 8400 nM; in assay [5], > 10000 nM.
Regarding `COc1cc2c(N[C@H](C)c3cccc(Br)c3)nc(C)nc2cc1OCCCCCCCCC(=O)N1CCC(c2cc(F)cc3c2CN(C2CCC(=O)NC2=O)C3=O)CC1` (stereo partly drawn) [Compound A61, 3-(4-(1-(9-((4-(((R)-1-(3-Bromophenyl)ethyl)amino)-6-methoxy-2-methyl-quinazolin-7-yl)oxy)nonanoyl)piperidin-4-yl)-6-fluoro-1-oxoisoindolin-2-yl)piperidine-2,6-dione], the IC50 in assay [1] is 6600 nM; in assay [2], 5200 nM; in assay [3] it was 5900 nM; in assay [4], > 10000 nM; in assay [5], > 10000 nM.
Consider `COc1cc2c(N[C@H](C)c3cccc(Br)c3)nc(C)nc2cc1OCCCCCCCCCCNc1cccc2c1CN(C1CCC(=O)NC1=O)C2=O` (stereo partly drawn) [Compound A62, 3-(4-((10-((4-(((R)-1-(3-Bromophenyl)ethyl)amino)-6-methoxy-2-methyl-quinazolin-7-yl)oxy)decyl)amino)-1-oxoisoindolin-2-yl)piperidine-2,6-dione], for which the 50% inhibitory concentration (IC50) is 4000 nM in assay [1]; 1300 nM in assay [2]; 2400 nM in assay [3]; > 10000 nM in assay [4]; > 10000 nM in assay [5].
In the case of `COc1cc2c(N[C@H](C)c3cccc(Br)c3)nc(C)nc2cc1OCCCCCC(=O)N(C)Cc1scc2c1CN(C1CCC(=O)NC1=O)C2=O` (stereo partly drawn) [Compound A63, 6-((4-(((R)-1-(3-Bromophenyl)ethyl)amino)-6-methoxy-2-methylquinazolin-7-yl)oxy)-N-((5-(2,6-dioxopiperidin-3-yl)-4-oxo-5,6-dihydro-4H-thieno[3,4-c]pyrrol-1-yl)methyl)-N-methylhexanamide], the IC50 in assay [1] is < 14 nM; in assay [2] it was 650 nM; in assay [3], 20 nM; in assay [4], 3500 nM; in assay [5], 130 nM.
For `COc1cc2c(N[C@H](C)c3cccc(Br)c3)nc(C)nc2cc1OCCCCCCCCCCCCc1scc2c1CN(C1CCC(=O)NC1=O)C2=O` (stereo partly drawn) [Compound A64, 3-(1-(12-((4-(((R)-1-(3-Bromophenyl)ethyl)amino)-6-methoxy-2-methyl-quinazolin-7-yl)oxy)dodecyl)-4-oxo-4H-thieno[3,4-c]pyrrol-5(6H)-yl)piperidine-2,6-dione], the IC50 in assay [1] is 2600 nM; in assay [2], 3100 nM; in assay [3] it was 1200 nM; in assay [4] it was 5500 nM; in assay [5], > 10000 nM.
For `COc1cc2c(N[C@H](C)c3cccc(Br)c3)nc(C)nc2cc1OCCN1CCC(CN2CCC(c3cc(F)cc4c3CN(C3CCC(=O)NC3=O)C4=O)CC2)CC1` (stereo partly drawn) [Compound A65, 3-(4-(1-((1-(2-((4-(((R)-1-(3-Bromophenyl)ethyl)amino)-6-methoxy-2-methyl-quinazolin-7-yl)oxy)ethyl)piperidin-4-yl)methyl)piperidin-4-yl)-6-fluoro-1-oxoisoindolin-2-yl)-piperidine-2,6-dione], the IC50 in assay [1] was determined as 1100 nM; in assay [2], 1100 nM; in assay [3], 970 nM; in assay [4] it was 3300 nM; in assay [5], 1600 nM.
On to `COc1cc2c(N[C@H](C)c3cccc(Br)c3)nc(C)nc2cc1OCCN1CCN(CCN2CCC(c3cc(F)cc4c3CN(C3CCC(=O)NC3=O)C4=O)CC2)CC1` (stereo partly drawn) [Compound A66, 3-(4-(1-(2-(4-(2-((4-(((R)-1-(3-Bromophenyl)ethyl)amino)-6-methoxy-2-methyl-quinazolin-7-yl)oxy)ethyl)piperazin-1-yl)ethyl)piperidin-4-yl)-6-fluoro-1-oxoisoindolin-2-yl)piperidine-2,6-dione], for which the concentration for half-maximal inhibition (IC50) was 5800 nM in assay [1]; 9700 nM in assay [2]; 3800 nM in assay [3]; > 10000 nM in assay [4]; 8000 nM in assay [5].
